The record followed here is the supplement of paper PMC6965134.

A short description of this data set: TIMS collisional cross section (CCS, N2) of the lipid ion; higher = larger ion cross section. The following applies: ionization mode: positive, one isomer drawn.

Structures are written as SMILES. ± gives the standard deviation of the averaged measurements.

As for `CCCCCCCC/C=C\CCCCCCCC(=O)O[C@H](COC(=O)CCCCCCCCCCCCCCCCC)COC(=O)CCCCCCCCCCCCCCCCCCCCC` [TG 18:0_18:1_22:0] (ion (formula + adduct): [C61H116O6+NH4] 1+), the “TIMS collisional cross section” value is, setting by setting: (sample type: HeLa) 341.8 Å²; (sample type: Liver) 342 Å²; (sample type: plasma) 341.9 Å².

In the case of `CCCCCCCCCCCCCCCCCCC(=O)OC[C@@H](COC(=O)CCCCCCCCCCCCCCC)OC(=O)CCCCCCCCCCCCCCCCC` [TG 16:0_18:0_19:0] (ion (formula + adduct): [C56H108O6+NH4] 1+), the “TIMS collisional cross section” value is, setting by setting: (sample type: Liver) 329.3 Å²; (sample type: plasma) 329 Å².

With `CCCCCCCCCCCCCCCC(=O)OC[C@@H](COC(=O)CCCCCCCCCCCCCC)OC(=O)CCCCCCCCCCCCCCC` [TG 15:0_16:0_16:0] (ion (formula + adduct): [C50H96O6+NH4] 1+), the “TIMS collisional cross section” value came to 311.5 Å² (sample type: HeLa) and 311.3 ± 0.14 Å² (sample type: plasma).

With `CC(C)CCC[C@@H](C)[C@H]1CC[C@H]2[C@@H]3CC=C4C[C@@H](O)CC[C@]4(C)[C@H]3CC[C@]12C` [Cholesterol] (ion (formula + adduct): [C27H46O+H] 1+), under “sample type: HeLa”, the “TIMS collisional cross section” value came to 207.1 Å².

Turning to `CCCCCCCC/C=C\CCCCCCCC(=O)O[C@@H](CO)COC(=O)CCCCCCC/C=C\CCCCCCCCC` [DG 19:1_18:1_0:0] (ion (formula + adduct): [C40H74O5+NH4] 1+), where the note is “sample type: HeLa”, the “TIMS collisional cross section” value worked out at 268.3 Å².

With `CC/C=C\C/C=C\C/C=C\C/C=C\C/C=C\C/C=C\CCC(=O)O[C@H](COC(=O)CCC/C=C\C/C=C\C/C=C\C/C=C\CCCCC)COP(=O)([O-])OCC[N+](C)(C)C` [PC 20:4_22:6] (ion (formula + adduct): [C50H80NO8P+H] 1+), the “TIMS collisional cross section” value (sample type: HeLa) turned out to be 295.5 Å².

`CCCCC/C=C\C/C=C\C/C=C\C/C=C\CCCC(=O)OC[C@@H](COC(=O)CCCCCCCCCCCCCCCC)OC(=O)CCCCCCC/C=C\C/C=C\CCCCC` [TG 17:0_18:2_20:4] (ion (formula + adduct): [C58H100O6+NH4] 1+): the “TIMS collisional cross section” value (sample type: Liver) amounted to 326.4 Å².

As for `CCCCC/C=C\C/C=C\CCCCCCCC(=O)OC[C@@H](COC(=O)CCCCCCCCCCCC)OC(=O)CCCCCCC/C=C\CCCCCC` [TG 13:0_16:1_18:2] (ion (formula + adduct): [C50H90O6+NH4] 1+), the “TIMS collisional cross section” value (sample type: plasma) amounted to 305.3 Å².

For the compound `CCCCC/C=C\C/C=C\C/C=C\CCCCCCCCC(=O)OC[C@@H](COC(=O)CCCCCCC/C=C\CCCCCCC)OC(=O)CCCCCCC/C=C\CCCCCCCC` [TG 17:1_18:1_22:3] (ion (formula + adduct): [C60H106O6+NH4] 1+), the “TIMS collisional cross section” value (sample type: HeLa) worked out at 332 Å².

For the compound `CCCCCCCCCCCCCCCC(=O)OC[C@@H](COC(=O)CCCCCCCCCCC)OC(=O)CCCCCCCCCCCCC` [TG 12:0_14:0_16:0] (ion (formula + adduct): [C45H86O6+NH4] 1+), the “TIMS collisional cross section” value runs as follows: (sample type: HeLa) 294.93 ± 0.32 Å²; (sample type: Liver) 295.2 ± 0.42 Å²; (sample type: plasma) 295.5 Å².

For `CCCCC/C=C\C/C=C\CCCCCCCC(=O)O[C@@H](CO)COC(=O)CCCCCCCCCCCCC` [DG 14:0_18:2_0:0] (ion (formula + adduct): [C35H64O5+NH4] 1+), for the setting “sample type: Liver”, the “TIMS collisional cross section” value is on record as 252 Å².

As for `CCCCCCCCCCCCCCCCCC(=O)O[C@H](COC(=O)CCCCCCCCCCCCCCC)COP(=O)([O-])OCC[N+](C)(C)C` [PC 16:0_18:0] (ion (formula + adduct): [C42H84NO8P+H] 1+), the “TIMS collisional cross section” value (sample type: Liver) stood at 291.4 Å².

With `CC/C=C\C/C=C\C/C=C\C/C=C\C/C=C\CCCCCC(=O)OC[C@@H](COC(=O)CCCCCCCCCCCCCCCCC)OC(=O)CCC/C=C\C/C=C\C/C=C\C/C=C\CCCCC` [TG 18:0_20:4_22:5] (ion (formula + adduct): [C63H104O6+NH4] 1+), the “TIMS collisional cross section” value (sample type: HeLa) was determined as 334.8 Å².

With `CCCCC/C=C\C/C=C\C/C=C\C/C=C\CCCC(=O)O[C@@H](CO)COC(=O)CCCCCCCCCCCCCCC` [DG 16:0_20:4_0:0] (ion (formula + adduct): [C39H68O5+H] 1+), the “TIMS collisional cross section” value (sample type: Liver) amounted to 263.9 Å².

With `CCCCC/C=C\C/C=C\C/C=C\C/C=C\CCCC(=O)O[C@H](CO/C=C\CCCCCCCCCCCCCCCCCC)COP(=O)(O)OCCN` [PE P- 20:0@_20:4] (ion (formula + adduct): [C45H82NO7P+H] 1+), under “sample type: Liver”, the “TIMS collisional cross section” value is on record as 288.7 Å².

On to `CC/C=C\C/C=C\C/C=C\C/C=C\C/C=C\C/C=C\CCC(=O)OC[C@@H](COC(=O)CCCCCCC/C=C\C/C=C\CCCCC)OC(=O)CC/C=C\C/C=C\C/C=C\C/C=C\C/C=C\C/C=C\CC` [TG 18:2_22:6_22:6] (ion (formula + adduct): [C65H98O6+NH4] 1+), for which, where the note is “sample type: Liver”, the “TIMS collisional cross section” value was determined as 333.6 Å².

As for `CCCCC/C=C\C/C=C\C/C=C\C/C=C\CCCC(=O)O[C@H](COC(=O)CCCCCCC/C=C\CCCCCC)COP(=O)([O-])OCC[N+](C)(C)C` [PC 16:1@_20:4] (ion (formula + adduct): [C44H78NO8P+H] 1+), the “TIMS collisional cross section” value (sample type: plasma) worked out at 285.8 Å².

As to `CCCCCCCCCCCCCCCC(=O)OC[C@@H](COC(=O)CCCCCCCCCCCC)OC(=O)CCCCCCCCCCCCCCC` [TG 13:0_16:0_16:0] (ion (formula + adduct): [C48H92O6+NH4] 1+), the “TIMS collisional cross section” value (sample type: HeLa) came out at 305 Å².

For `CCCCC/C=C\C/C=C\CCCCCCCC(=O)OC[C@@H](COC(=O)CCCCCCCCCCCCC)OC(=O)CCCCCCC/C=C\CCCCCCCC` [TG 14:0_18:1_18:2] (ion (formula + adduct): [C53H96O6+NH4] 1+), for the setting “sample type: Liver”, the “TIMS collisional cross section” value was found to be 312.9 Å².

As to `CC/C=C\C/C=C\C/C=C\C/C=C\C/C=C\C/C=C\CCC(=O)O[C@H](CO/C=C\CCCCCCCCCCCCCC)COP(=O)([O-])OCC[N+](C)(C)C` [PC P- 16:0@_22:6] (ion (formula + adduct): [C46H80NO7P+H] 1+), under “sample type: HeLa”, the “TIMS collisional cross section” value came to 291.3 Å².

In the case of `CCCCCCCC/C=C\CCCCCCCCCC(=O)OC[C@@H](COC(=O)CCCCCCC/C=C\CCCCCCCC)OC(=O)CCCCCCC/C=C\CCCCCCCC` [TG 18:1_18:1_20:1] (ion (formula + adduct): [C59H108O6+NH4] 1+), the “TIMS collisional cross section” value was 332.1 Å² (sample type: HeLa) and 332.4 Å² (sample type: plasma).

With `CCCCCCCCCCCCC/C=C/[C@@H](O)[C@H](COP(=O)([O-])OCC[N+](C)(C)C)NC(=O)CCCCCCCCCCCCCCCCCCCCC` [SM d18:1_22:0@] (ion (formula + adduct): [C45H91N2O6P+H] 1+), the “TIMS collisional cross section” value by setting is: (sample type: Liver) 302.3 Å²; (sample type: plasma) 301.9 Å².

As for `CCCCCC/C=C\CCCCCCCC(=O)O[C@H](COC(=O)CCCCCCCCCCC)COC(=O)CCCCCCCCCCCCCCCC` [TG 12:0_16:1_17:0] (ion (formula + adduct): [C48H90O6+NH4] 1+), the “TIMS collisional cross section” value (sample type: Liver) is given as 303 Å².

With `CCCC/C=C\CCCCCCCC(=O)OC[C@H](COP(=O)([O-])OCC[N+](C)(C)C)OC(=O)CCCCCCCCCCCCCCCCC` [PC 14:1@_18:0] (ion (formula + adduct): [C40H78NO8P+H] 1+), the “TIMS collisional cross section” value (sample type: HeLa) was found to be 282.3 Å².

Consider `CC/C=C\C/C=C\C/C=C\C/C=C\C/C=C\C/C=C\CCC(=O)OC[C@@H](COC(=O)CCCCCCCCCCCCCCC)OC(=O)CCCCC/C=C\C/C=C\C/C=C\C/C=C\C/C=C\CC` [TG 16:0_22:5_22:6] (ion (formula + adduct): [C63H100O6+NH4] 1+), for which the “TIMS collisional cross section” value (sample type: HeLa) was 332.8 Å².

Regarding `CC/C=C\C/C=C\C/C=C\C/C=C\C/C=C\CCCC(=O)O[C@H](COC(=O)CCCCCCCCCCCCCCC)COP(=O)([O-])OCC[N+](C)(C)C` [PC 16:0_20:5@] (ion (formula + adduct): [C44H78NO8P+H] 1+), the “TIMS collisional cross section” value (sample type: HeLa) came to 286.9 Å².

Consider `CCCC/C=C\CCCCCCCC(=O)O[C@H](COC(=O)CCCCCCCCCCC)COC(=O)CCCCCCCCCCCCCCC` [TG 12:0_14:1_16:0] (ion (formula + adduct): [C45H84O6+NH4] 1+), for which the “TIMS collisional cross section” value (sample type: plasma) is reported as 291.9 Å².

On to `CCCCCCCCCCCCC/C=C/[C@@H](O)[C@H](COP(=O)([O-])OCC[N+](C)(C)C)NC(=O)CCCCCCCCCCCCCCC` [SM d18:1_16:0@] (ion (formula + adduct): [C39H79N2O6P+H] 1+), for which the “TIMS collisional cross section” value is, setting by setting: (sample type: HeLa) 284.9 Å²; (sample type: Liver) 285 Å²; (sample type: plasma) 285.4 Å².

For the compound `CC/C=C\C/C=C\C/C=C\C/C=C\C/C=C\C/C=C\CCC(=O)O[C@H](COC(=O)CCCCCCCCCCCCCCC)COP(=O)(O)OCCN` [PE 16:0@_22:6] (ion (formula + adduct): [C43H74NO8P+H] 1+), the “TIMS collisional cross section” value (sample type: plasma) was 279.1 Å².

As to `CC/C=C\C/C=C\C/C=C\C/C=C\C/C=C\C/C=C\CCC(=O)O[C@H](CO/C=C\CCCCCCCCCCCCCCCC)COP(=O)(O)OCCN` [PE P- 18:0@_22:6] (ion (formula + adduct): [C45H78NO7P+H] 1+), the “TIMS collisional cross section” value (sample type: Liver) is recorded as 285 Å² and the “TIMS collisional cross section” value (sample type: plasma) is 284.2 Å².

For the compound `CCCCC/C=C\C/C=C\C/C=C\C/C=C\CCCCCC(=O)OC[C@@H](COC(=O)CCCCCCC/C=C\CCCCCCCC)OC(=O)CCCCCCC/C=C\CCCCCCCC` [TG 18:1_18:1_22:4] (ion (formula + adduct): [C61H106O6+NH4] 1+), the “TIMS collisional cross section” value is 334.9 Å² (sample type: Liver) and 333.8 Å² (sample type: plasma).

On to `CC/C=C\C/C=C\C/C=C\C/C=C\C/C=C\CCCC(=O)OC[C@@H](O)COP(=O)(O)OCCN` [LPE 20:5] (ion (formula + adduct): [C25H42NO7P+H] 1+), for which the “TIMS collisional cross section” value (sample type: plasma) came to 210.7 Å².

In the case of `CCCCCCCC/C=C\CCCCCCCC(=O)OC[C@@H](COC(=O)CCCCCCCCCCCC)OC(=O)CCCCCCCCCCCCC` [TG 13:0_14:0_18:1] (ion (formula + adduct): [C48H90O6+NH4] 1+), the “TIMS collisional cross section” value (sample type: Liver) is 303.1 Å².
